Measured values published in patent US20090239949A1, “Polar Hydrophilic Prodrugs of Amphetamine and Other Stimulants and Processes for Making and Using the Same” (priority 2007, published 2009).

Experiments:
[1] = Oral pharmacokinetic study of Cit-Amp vs Lys-Amp (Example 13); settings: for % Tmax: relative to Lys-Amp
[2] = Intranasal pharmacokinetic study of d-amphetamine, hArg-Amp and Lys-Amp (Example 15); settings: for % Tmax: relative to d-amp
[3] = Intravenous pharmacokinetic study of d-amphetamine, hArg-Amp and Lys-Amp (Example 16); settings: for % Tmax: relative to d-amp
[4] = Oral pharmacokinetic study of Lys-Amp, Sar-Amp, hCit-Amp and hArg(NO2)-Amp (Example 14); settings: for Cmax: plasma d-amphetamine, n=5
[5] = Average results of oral pharmacokinetic studies of hArg-Amp vs Lys-Amp (Table 3); settings: relative to Lys-Amp
[6] = Pharmacokinetics of d-amphetamine after parenteral (intranasal, intravenous) administration of hArg-Amp (Example 1); settings: parental routes (intranasal, intravenous)
[7] = Oral pharmacokinetic study of hArg-Amp vs Lys-Amp, plasma d-amphetamine by ELISA (Example 12); settings: relative to Lys-Amp

## C[C@@H](Cc1ccccc1)NC(=O)[C@@H](N)CCCNC(N)=O.Cl [Cit-Amp, 1-citrulline-d-amphetamine hydrochloride]
[1]
  % Tmax: 25%

## C[C@H](N)Cc1ccccc1 [d-amp, d-amphetamine]
[2]; intranasal
  % Tmax: 100%
[2]; male, Sprague-Dawley, rat, in vivo, inhaled or intranasal, […]
  Tmax: 5 min
[3]; intravenous
  % Tmax: 100%
[3]; male, Sprague-Dawley, rat, in vivo, iv, […]
  Tmax: 5 min

## C[C@@H](Cc1ccccc1)NC(=O)[C@@H](N)CCCCNC(N)=N[N+](=O)[O-] [hArg(NO2)-Amp, l-homoarginine(NO2)-d-amphetamine]
[4]
  Cmax: 59 ng/mL

## C[C@@H](Cc1ccccc1)NC(=O)[C@@H](N)CCCCN=C(N)N.Cl.Cl [hArg-Amp, l-homoarginine-d-amphetamine dihydrochloride]
[5]
  % Tmax: 200-400%
[2]; intranasal, plasma d-amphetamine
  Tmax: 30 min
[2]; intranasal
  % Tmax: 600%
[3]; intravenous, plasma d-amphetamine
  Tmax: 5 m
[3]; intravenous
  % Tmax: 100%
[6]
  release of amphetamine: < 25%

## l-homocitrulline-d-amphetamine hydrochloride [hCit-Amp]
[4]
  Cmax: 57 ng/mL

## l-lysine-d-amphetamine [Lys-Amp]
[1]; plasma d-amphetamine, n=5
  Cmax: 59 ng/mL
[1]
  % Tmax: 100%
[5]
  % Tmax: 100%
[2]; intranasal
  % Tmax: 3600%
[3]; intravenous
  % Tmax: 100%
[4]
  Cmax: 54 ng/mL
[4]; relative to Lys-Amp
  % Tmax: 100%
[7]
  % Tmax: 100%

## sarcosine-d-amphetamine [Sar-Amp]
[4]
  Cmax: 45 ng/mL
